Results as given in ChEMBL document CHEMBL1125390, “Design and synthesis of novel 6,7-imidazotetrahydroquinoline inhibitors of thymidylate synthase using iterative protein crystal structure analysis” (J Med Chem, 1992).

How the values were obtained:
GC3M(-) [1] = assay: Compound was tested for the inhibition of thymidine kinase deficient human adenocarcinoma GC3M(-) cell growth
CCRF-CEM = assay: Compound was tested for the inhibition of human CCRF-CEM leukemia cell growth
L1210 = assay: Compound was tested for the inhibition of mouse L1210 leukemia cell growth
GC3M(-) [2] = assay: Compound was evaluated for cellular growth inhibition in thymidine kinase deficient human adenocarcinoma GC3M(-) cell line
Thymidylate synthase = Thymidylate synthase (Escherichia coli, UniProt C3SWJ7)
Thymidylate synthase, sequence (C3SWJ7 whole entry): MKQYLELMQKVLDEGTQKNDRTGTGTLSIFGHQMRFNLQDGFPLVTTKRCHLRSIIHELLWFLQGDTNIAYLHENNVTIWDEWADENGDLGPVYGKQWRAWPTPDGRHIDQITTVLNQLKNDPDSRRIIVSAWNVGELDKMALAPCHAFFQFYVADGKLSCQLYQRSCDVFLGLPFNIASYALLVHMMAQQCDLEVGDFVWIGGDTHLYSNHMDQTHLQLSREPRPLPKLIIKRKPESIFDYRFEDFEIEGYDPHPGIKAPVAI
Description: Inhibition of Escherichia coli Thymidylate synthase (TS)

Structure (SMILES) | IC50 (CCRF-CEM) [µM] | IC50 (L1210) [µM] | Ki (Thymidylate synthase) [µM] | IC50 (GC3M(-) [1]) [µM] | IC50 (GC3M(-) [2]) [µM]
Nc1nc2cc3c(cc2[nH]1)N(Cc1ccc(S(=O)(=O)N2CCOCC2)cc1)CCC3 | 4 | 4 | – | 8.6 | –
Nc1nc2cc3c(cc2[nH]1)N(Cc1ccc(C(=O)NC(CCC(=O)O)C(=O)O)cc1)CCC3 (configuration not stated) | 40 | 20 | – | – | > 50
CNc1nc2cc3c(cc2[nH]1)N(Cc1ccc(S(=O)(=O)c2ccccc2)cc1)CCC3 | 3.3 | 3 | 8.5 | > 5 | –
Nc1nc2cc3c(cc2[nH]1)N(Cc1ccc(S(=O)(=O)c2ccc(O)cc2)cc1)CCC3 | 22 | 12 | – | – | > 50
CSc1nc2cc3c(cc2[nH]1)N(Cc1ccc(S(=O)(=O)c2ccccc2)cc1)CCC3 | > 10 | > 10 | > 3 | > 10 | –
Nc1nc2cc3c(cc2[nH]1)N(Cc1ccc(S(=O)(=O)c2ccccc2)cc1)CCC3 | – | – | – | > 5 | –
Nc1nc2cc3c(cc2[nH]1)CCCC3Sc1ccc(S(=O)(=O)c2ccccc2)cc1 (configuration not stated) | > 10 | 7.5 | – | > 10 | –
O=S(=O)(c1ccc(CN2CCCc3cc4[nH]cnc4cc32)cc1)N1CCNCC1 | – | – | – | 43 | –
Nc1nc2cc3c(cc2[nH]1)N(Cc1ccc2cc(CO)ccc2c1)CCC3 | > 5 | 3.1 | – | > 5 | –

Now from value to compound, other results behind:

IC50 (CCRF-CEM) [µM] | IC50 (L1210) [µM] | Ki (Thymidylate synthase) [µM] | Structure (SMILES) | IC50 (GC3M(-) [1]) [µM] | IC50 (GC3M(-) [2]) [µM]
8 | 2.8 | 1.3 | COc1ccc(S(=O)(=O)c2ccc(CN3CCCc4cc5nc(C)[nH]c5cc43)cc2)cc1 | 4.1 | –
0.9 | 0.5 | 0.5 | COc1ccc(S(=O)(=O)c2ccc(CN3CCCc4cc5c(cc43)nc(N)n5C)cc2)cc1 | 3 | –
5.1 | 2.6 | – | COc1ccc(S(=O)(=O)c2ccc(CN3CCCc4cc5[nH]c(N)nc5cc43)cc2)cc1 | 9 | –
1.8 | 1.05 | 5.2 | COc1ccc(S(=O)(=O)c2ccc(CN3CCCc4cc5c(cc43)nc(C)n5C)cc2)cc1 | > 5 | –
– | 2 | – | Nc1nc2cc3c(cc2[nH]1)N(Cc1ccc(S(=O)(=O)N2CCNCC2)cc1)CCC3 | > 50 | –
